The results in this text go back to US10391095B2, “DNA-PK inhibitors” (Vertex Pharmaceuticals Incorporated, priority 2012, dated 2019).

For orientation: pKi means the Ki on a negative log10 scale, so that one unit is a factor of ten.

The structures appear in SMILES notation. pKi: −log10 of the molar value.

The assay concerns the target DNA-PK (Homo sapiens, UniProt P78527). Put plainly: DNA-PK inhibition assay (radiometric, 33P-ATP). The format is biochemical. The conditions noted are these: 100 μM ATP, competitive tight-binding fit. Put shortly:
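33P transfer from 100 µM ATP to a DNA-PK peptide (0.8 mg/mL) is measured after 45 min, using about 6 nM enzyme activated by 10 µg/mL sheared dsDNA (HEPES pH 7.5, MgCl2, DTT). Filter-bound counts fitted to a competitive tight-binding inhibition model give Ki.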
For `COc1ccccc1[C@H](C)CNc1cc(-c2ccc(NCC#N)nc2)ncn1` [Compound 202], the pKi is > 7.52.
With `CNC(=O)c1ccnc2c([C@H](C)CNc3cc(-c4ccc(N5CCN(CC(F)(F)F)CC5)nc4)ncn3)cccc12` [Compound 780], the negative logarithm of the Ki (pKi) is > 7.52.
As for `CNC(=O)c1ccnc2c([C@H](C)CNc3cc(-c4ccc(N5CCC6(COC6)C5)nc4)ncn3)cccc12` [Compound 735], the figure is > 7.52.
Consider `CNC(=O)c1c(F)cnc2c([C@H](C)CNc3cc(-c4ccc(C5CCC5)nc4)ncn3)cccc12` [Compound 855], for which the pKi is > 7.52.
The figure for `CNC(=O)c1ccnc2c([C@H](C)CNc3cc(-c4ccc(NCCc5ccc(C)o5)nc4)ncn3)cccc12` [Compound 738] is > 7.52; for `CNC(=O)c1ccnc2c([C@H](C)CNc3cc(-c4ccc(C)nc4)ncn3)cc(F)c(F)c12` [Compound 638] it is > 7.52.
The figure for `CNC(=O)c1ccnc2c([C@H](C)CNc3cc(-c4cnc(OC)c(F)c4)ncn3)cccc12` [Compound 881] is > 7.52; for `CNC(=O)c1cc(OC)c(C(C)CNc2cc(-c3ccc(C)nc3)ncn2)cn1` (centres unmarked) [Compound 376] it is > 7.52.
For the compound `CNC(=O)c1ccc([C@H](C)CNc2cc(-c3ccc(N4CCCC4)nc3)ncn2)c(OC)c1` [Compound 363], the negative logarithm of the Ki (pKi) was > 7.52.
Regarding `CNC(=O)c1ccnc2c([C@H](C)CNc3cc(-c4ccnc(N5CCCC5=O)c4)ncn3)cccc12` [Compound 893], the pKi was > 7.52.
The figure for `COc1cc(C(=O)NCC(F)(F)F)ccc1C(C)CNc1cc(-c2ccc(C)nc2)ncn1` (centres unmarked) [Compound 218] is > 7.52.
The figure for `CNC(=O)c1ccnc2c([C@H](C)CNc3cc(-c4ccc(S(C)(=O)=O)nc4)ncn3)cccc12` [Compound 587] is > 7.52.
The figure for `CNC(=O)c1ccnc2c([C@H](C)CNc3cc(-c4cnc(C(C)(C)OC)nc4)ncn3)cccc12` [Compound 928] is > 7.52; for `CNC(=O)c1ccnc2c([C@H](C)CNc3cc(-c4ccc(C(C)(C)O)nc4)ncn3)ccc(F)c12` [Compound 865] it is > 7.52; for `CCOc1cc(-c2cc(NC[C@@H](C)c3cccc4c(C(=O)NC)ccnc34)ncn2)cnc1C` [Compound 875] it is > 7.52.
For `CNC(=O)c1ccc(C(C)CNc2cc(-c3cnc(C)nc3)ncn2)c(OC)c1` (centres unmarked) [Compound 193], the negative logarithm of the Ki (pKi) was > 7.52.
Take `CNC(=O)c1ccnc2c([C@H](C)CNc3cc(-c4cnc(N(C)C)nc4)ncn3)cccc12` [Compound 810]: the negative-log Ki (pKi) was > 7.52.
Regarding `CNC(=O)c1ccnc2c([C@H](C)CNc3cc(-c4cnc(N)nc4)ncn3)cccc12` [Compound 608], the pKi is > 7.52.
The figure for `C[C@H](CNc1cc(-c2ccc(N)nc2)ncn1)c1ccnc2c1OCCO2` [Compound 459] is > 7.52; for `CC(CNc1cc(-c2cnc3c(cnn3CCO)c2)ncn1)c1cncc2c1OCCC2` (centres unmarked) [Compound 452] it is > 7.52; for `CC(CNc1cc(-c2cnc3c(cnn3C3CCN(C)CC3)c2)ncn1)c1cccc2cccnc12` (centres unmarked) [Compound 237] it is > 7.52.
As for `CNC(=O)c1ccc([C@H](C)CNc2cc(-c3ccc(CN)cc3)ncn2)c(OC)c1` [Compound 351], the figure is > 7.52; as for `CNC(=O)c1c(F)cnc2c([C@H](C)CNc3cc(-c4csc(OC)n4)ncn3)cccc12` [Compound 787], > 7.52.
As for `CCc1cc(-c2cc(NC[C@@H](C)c3cccc4c(C(=O)NC)ccnc34)ncn2)cc(CC)n1` [Compound 953], the figure is > 7.52; as for `CNC(=O)c1ccc([C@H](C)CNc2cc(-c3ccc(NC4CC4)nc3)ncn2)c(OC)c1` [Compound 388], > 7.52.
As for `CNC(=O)c1ccnc2c([C@H](C)CNc3cc(-c4cncc(COC)c4)ncn3)cccc12` [Compound 840], the pKi was > 7.52.
For the compound `CNC(=O)c1ccc(C(C)CNc2cc(-c3cnc4c(cnn4C)c3)ncn2)c(OC)c1` (centres unmarked) [Compound 188], the pKi is > 7.52.
On to `CNC(=O)c1ccnc2c([C@H](C)CNc3cc(-c4ccc5c(c4)CCN(C(=O)COC)C5)ncn3)cccc12` [Compound 835], for which the negative-log Ki (pKi) was > 7.52.
As for `COc1ccccc1[C@H](C)CNc1cc(-c2ccc3ncccc3c2)ncn1` [Compound 80], the figure is > 7.52; as for `Cc1ccc(-c2cc(NCC(C)c3cccc4nc(C)c(C)nc34)ncn2)cn1` (centres unmarked) [Compound 434], > 7.52; as for `CNC(=O)c1ncnc2c([C@H](C)CNc3cc(-c4cnc(C)nc4)ncn3)cccc12` [Compound 976], > 7.52.
Turning to `CNC(=O)c1ccnc2c([C@H](C)CNc3cc(-c4ccnc(CO)c4)ncn3)cccc12` [Compound 890], the pKi is > 7.52.
As for `CCn1ccc2cc(-c3cc(NCCc4ccccc4OC)ncn3)cnc21` [Compound 35], the figure is > 7.52; as for `Cc1ccc(-c2cc(NCC(C)c3cccc4c3OCCO4)ncn2)cn1` (centres unmarked) [Compound 447], > 7.52.
For `COc1ccccc1CCNc1cc(-c2cnc3c(ccn3CC3CCOCC3)c2)ncn1` [Compound 41], the pKi is > 7.52.
For `CNC(=O)c1ccnc2c([C@H](C)CNc3cc(-c4cncnc4)ncn3)cccc12` [Compound 605], the negative-log Ki (pKi) is > 7.52.
As for `C[C@H](CNc1cc(-c2ccc3ncccc3c2)ncn1)c1ccnc2cccnc12` [Compound 501], the figure is > 7.52.
As for `CNC(=O)c1ccnc2c([C@H](C)CNc3cc(-c4ccc(OC)nc4)ncn3)ccc(F)c12` [Compound 908], the figure is > 7.52; as for `CC(CNc1cc(-c2cnc3c(cnn3CCO)c2)ncn1)c1cccc2scnc12` (centres unmarked) [Compound 402], > 7.52; as for `CNC(=O)c1ccc([C@H](C)CNc2cc(-c3ccc(N(C)CCO)nc3)ncn2)c(OC)c1` [Compound 365], > 7.52.
As for `CCOc1ncc(-c2cc(NC[C@@H](C)c3cccc4c(C(=O)NC)ccnc34)ncn2)cn1` [Compound 607], the figure is > 7.52; as for `CNC(=O)c1ccnc2c([C@H](C)CNc3cc(-c4cncc(C)c4)ncn3)cccc12` [Compound 792], > 7.52; as for `CNC(=O)c1ccnc2c([C@H](C)CNc3cc(-c4ccc(C(=O)NCCCN(C)C)cc4)ncn3)cccc12` [Compound 751], > 7.52.
Turning to `COc1ccccc1[C@H](C)CNc1cc(-c2cnc3c(cnn3C)c2)ncn1` [Compound 172], the pKi was > 7.52.
The figure for `C=C(CNc1cc(-c2ccc(C)nc2)ncn1)c1cnc(N)nc1OC` [Compound 453] is > 7.52; for `CNC(=O)c1c(F)cnc2c([C@H](C)CNc3cc(-c4cnc(C#N)c(OC)c4)ncn3)cccc12` [Compound 918] it is > 7.52.
The figure for `COc1cc(C(=O)NCC(F)F)ccc1[C@H](C)CNc1cc(-c2ccc(C)nc2)ncn1` [Compound 405] is > 7.52; for `CNC(=O)c1ccnc2c([C@H](C)CNc3cc(-c4ccnc(C(F)(F)F)c4)ncn3)cccc12` [Compound 812] it is > 7.52.
For `COc1cc(C(N)=O)ccc1C(C)CNc1cc(-c2ccc(C)nc2)ncn1` (centres unmarked) [Compound 122], the pKi was > 7.52.
With `CCOc1ccccc1CCNc1cc(-c2ccc(C)nc2)ncn1` [Compound 57], the negative-log Ki (pKi) was > 7.52.
On to `CNC(=O)c1ccnc2c([C@H](C)CNc3cc(-c4ccc(C(=O)O)cc4)ncn3)cccc12` [Compound 672], for which the negative-log Ki (pKi) was > 7.52.
Turning to `CNC(=O)c1c(F)cnc2c([C@H](C)CNc3cc(-c4cnc5c(c4)OCCO5)ncn3)cccc12` [Compound 937], the negative-log Ki (pKi) was > 7.52.
As for `CNC(=O)c1ccnc2c([C@H](C)CNc3cc(-c4ccc(CN5CCN(C)CC5)nc4)ncn3)cccc12` [Compound 670], the figure is > 7.52.
As for `Cc1ccc(-c2cc(NCC(C)c3cccc4cccnc34)ncn2)cn1` (centres unmarked) [Compound 235], the figure is > 7.52.
As for `CONC(=O)c1ccc(C(C)CNc2cc(-c3ccc(C)nc3)ncn2)c(OC)c1` (centres unmarked) [Compound 157], the figure is > 7.52; as for `CC(CNc1cc(-c2ccc(N3CCN(C)CC3)nc2)ncn1)c1ccccc1OC(F)F` (centres unmarked) [Compound 63], > 7.52.
Take `COc1ccccc1[C@H](C)CNc1cc(-c2ccc(N(C)C3CCN(C)CC3)nc2)ncn1` [Compound 223]: the pKi was > 7.52.
`CNC(=O)c1ccnc2c([C@H](C)CNc3cc(-c4cnc(C5CCOCC5)nc4)ncn3)cccc12` [Compound 831]: the pKi was > 7.52.
Regarding `COc1ccccc1[C@H](C)CNc1cc(-c2ccc(N3CCN(C)CC3)nc2)ncn1` [Compound 32, (S)—N-(2-(2-Methoxyphenyl)propyl)-6-(6-(4-methylpiperazin-1-yl)pyridin-3-yl)pyrimidin-4-amine], the pKi was > 7.52.
The figure for `CNC(=O)c1ccnc2c([C@H](C)CNc3cc(-c4cnc(C(C)(C)OC)nc4)ncn3)ccc(F)c12` [Compound 929] is > 7.52.
The figure for `CNC(=O)c1ccc([C@H](C)CNc2cc(-c3ccc4c(c3)NC(=O)C4)ncn2)c(OC)c1` [Compound 311] is > 7.52; for `CNc1ncc(-c2cc(NC[C@@H](C)c3cc(C)nc4c3OCC4)ncn2)cn1` [Compound 574] it is > 7.52.
As for `CNCCN(C)c1ccc(-c2cc(NC[C@@H](C)c3cccc4c(C(=O)NC)ccnc34)ncn2)cn1` [Compound 706], the figure is > 7.52.
For the compound `CNC(=O)c1ccnc2c([C@H](C)CNc3cc(-c4ccc5c(c4)CN(C(C)=O)CC5)ncn3)cccc12` [Compound 804], the negative-log Ki (pKi) is > 7.52.
The figure for `CNC(=O)c1ccnc2c([C@H](C)CNc3cc(-c4ccc(C(N)=O)cc4)ncn3)cccc12` [Compound 759] is > 7.52; for `CCNC(=O)Cn1ncc2cc(-c3cc(NCC(C)c4ccc(C(=O)NC)cc4OC)ncn3)cnc21` (centres unmarked) [Compound 238] it is > 7.52; for `CNC(=O)c1ccc([C@H](C)CNc2cc(-c3ccc(NC(CO)CO)nc3)ncn2)c(OC)c1` [Compound 353] it is > 7.52.
For the compound `CNCCNc1ccc(-c2cc(NC[C@@H](C)c3ccccc3OC)ncn2)cn1` [Compound 205], the negative-log Ki (pKi) is > 7.52.
